Results from PubChem BioAssay (NCI).
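Test compounds were applied to cells in 96-well plates for 48 hours at 5 doses. TGI: concentration producing complete growth inhibition.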

Assays:
Assay in all cases: NCI-60 cell line screen, 48 h
OVCAR-8 ovarian = system: OVCAR-8 ovarian
RXF 393 renal = system: RXF 393 renal
HOP-62 NSCLC = system: HOP-62 NSCLC
OVCAR-3 ovarian = system: OVCAR-3 ovarian
MDA-N = system: MDA-N
NCI/ADR-RES ovarian = system: NCI/ADR-RES ovarian
SF-295 CNS = system: SF-295 CNS
RPMI-8226 leukemia = system: RPMI-8226 leukemia
EKVX NSCLC = system: EKVX NSCLC
NCI-H226 lung = system: NCI-H226 lung
MCF7 breast = system: MCF7 breast
TK-10 renal = system: TK-10 renal
HT29 colon = system: HT29 colon
PC-3 prostate = system: PC-3 prostate
M14 melanoma = system: M14 melanoma
T-47D breast = system: T-47D breast
SNB-75 CNS = system: SNB-75 CNS
DU-145 prostate = system: DU-145 prostate
NCI-H23 lung = system: NCI-H23 lung
OVCAR-5 ovarian = system: OVCAR-5 ovarian
A549 NSCLC = system: A549 NSCLC
UACC-257 melanoma = system: UACC-257 melanoma
A498 renal = system: A498 renal
SK-MEL-28 melanoma = system: SK-MEL-28 melanoma
SK-MEL-2 melanoma = system: SK-MEL-2 melanoma
BT-549 breast = system: BT-549 breast
SR leukemia = system: SR leukemia
UO-31 renal = system: UO-31 renal
NCI-H460 lung = system: NCI-H460 lung
OVCAR-4 ovarian = system: OVCAR-4 ovarian
SF-539 CNS = system: SF-539 CNS
IGROV1 ovarian = system: IGROV1 ovarian
SN12C renal = system: SN12C renal
HCC-2998 colon = system: HCC-2998 colon
SK-MEL-5 melanoma = system: SK-MEL-5 melanoma
SW-620 colon = system: SW-620 colon
SNB-19 CNS = system: SNB-19 CNS
HOP-92 NSCLC = system: HOP-92 NSCLC
786-0 renal = system: 786-0 renal
UACC-62 melanoma = system: UACC-62 melanoma
HCT-116 colon = system: HCT-116 colon
ACHN renal = system: ACHN renal
SK-OV-3 ovarian = system: SK-OV-3 ovarian
HCT-15 colon = system: HCT-15 colon
MDA-MB-231 breast = system: MDA-MB-231 breast
SF-268 CNS = system: SF-268 CNS
CAKI-1 renal = system: CAKI-1 renal
COLO 205 colon = system: COLO 205 colon
MDA-MB-435 = system: MDA-MB-435
KM12 colon = system: KM12 colon
K-562 leukemia = system: K-562 leukemia
MOLT-4 leukemia = system: MOLT-4 leukemia
HS 578T breast = system: HS 578T breast
CCRF-CEM leukemia = system: CCRF-CEM leukemia
LOX IMVI melanoma = system: LOX IMVI melanoma
NCI-H522 lung = system: NCI-H522 lung
HL-60(TB) leukemia = system: HL-60(TB) leukemia
MALME-3M melanoma = system: MALME-3M melanoma
U251 CNS = system: U251 CNS

Structure (SMILES): CC1=CSC(O)(c2ccc(Cl)cc2)c2noc(=O)n21 (centres undefined)
- TGI (OVCAR-8 ovarian): > 100 µM
- TGI (RXF 393 renal): > 100 µM
- TGI (HOP-62 NSCLC): > 100 µM
- TGI (OVCAR-3 ovarian): > 100 µM
- TGI (MDA-N): > 100 µM
- TGI (NCI/ADR-RES ovarian): > 100 µM
- TGI (SF-295 CNS): > 100 µM
- TGI (RPMI-8226 leukemia): > 100 µM
- TGI (EKVX NSCLC): > 100 µM
- TGI (NCI-H226 lung): > 100 µM
- TGI (MCF7 breast): > 100 µM
- TGI (TK-10 renal): > 100 µM
- TGI (HT29 colon): > 100 µM
- TGI (PC-3 prostate): > 100 µM
- TGI (M14 melanoma): > 100 µM
- TGI (T-47D breast): > 100 µM
- TGI (SNB-75 CNS): > 100 µM
- TGI (DU-145 prostate): > 100 µM
- TGI (NCI-H23 lung): > 100 µM
- TGI (OVCAR-5 ovarian): > 100 µM
- TGI (A549 NSCLC): > 100 µM
- TGI (UACC-257 melanoma): 60.3 µM
- TGI (A498 renal): > 100 µM
- TGI (SK-MEL-28 melanoma): > 100 µM
- TGI (SK-MEL-2 melanoma): > 100 µM
- TGI (BT-549 breast): > 100 µM
- TGI (SR leukemia): > 100 µM
- TGI (UO-31 renal): > 100 µM
- TGI (NCI-H460 lung): > 100 µM
- TGI (OVCAR-4 ovarian): > 100 µM
- TGI (SF-539 CNS): > 100 µM
- TGI (IGROV1 ovarian): > 100 µM
- TGI (SN12C renal): > 100 µM
- TGI (HCC-2998 colon): > 100 µM
- TGI (SK-MEL-5 melanoma): > 100 µM
- TGI (SW-620 colon): > 100 µM
- TGI (SNB-19 CNS): > 100 µM
- TGI (HOP-92 NSCLC): > 100 µM
- TGI (786-0 renal): > 100 µM
- TGI (UACC-62 melanoma): > 100 µM
- TGI (HCT-116 colon): > 100 µM
- TGI (ACHN renal): > 100 µM
- TGI (SK-OV-3 ovarian): > 100 µM
- TGI (HCT-15 colon): > 100 µM
- TGI (MDA-MB-231 breast): > 100 µM
- TGI (SF-268 CNS): > 100 µM
- TGI (CAKI-1 renal): > 100 µM
- TGI (COLO 205 colon): > 100 µM
- TGI (MDA-MB-435): > 100 µM
- TGI (KM12 colon): > 100 µM
- TGI (K-562 leukemia): > 100 µM
- TGI (MOLT-4 leukemia): > 100 µM

Structure (SMILES): C=C1C(=O)OC2/C=C(\C)C(=O)CC3OC(C)(C)OC3(C)CC(OC(=O)/C(C)=C/C)C12 (centres undefined)
- TGI (OVCAR-8 ovarian): > 68.9 µM
- TGI (RXF 393 renal): 36.7 µM
- TGI (HOP-62 NSCLC): > 100 µM
- TGI (OVCAR-3 ovarian): > 56.5 µM
- TGI (MDA-N): > 80.5 µM
- TGI (HS 578T breast): > 100 µM
- TGI (CCRF-CEM leukemia): > 21.8 µM
- TGI (SF-295 CNS): 98.2 µM
- TGI (RPMI-8226 leukemia): > 100 µM
- TGI (EKVX NSCLC): 34.2 µM
- TGI (NCI-H226 lung): 63.6 µM
- TGI (MCF7 breast): > 47.1 µM
- TGI (TK-10 renal): 27.9 µM
- TGI (HT29 colon): 37.2 µM
- TGI (PC-3 prostate): 59 µM
- TGI (M14 melanoma): > 70.3 µM
- TGI (T-47D breast): > 64.6 µM
- TGI (SNB-75 CNS): > 72.9 µM
- TGI (DU-145 prostate): 45.1 µM
- TGI (NCI-H23 lung): 57.8 µM
- TGI (OVCAR-5 ovarian): 47.2 µM
- TGI (A549 NSCLC): > 100 µM
- TGI (UACC-257 melanoma): 31.5 µM
- TGI (A498 renal): 54.4 µM
- TGI (SK-MEL-28 melanoma): 86.5 µM
- TGI (SK-MEL-2 melanoma): 82.8 µM
- TGI (BT-549 breast): 26.8 µM
- TGI (LOX IMVI melanoma): 27.3 µM
- TGI (UO-31 renal): 29.3 µM
- TGI (NCI-H460 lung): 46.2 µM
- TGI (OVCAR-4 ovarian): 41.5 µM
- TGI (SF-539 CNS): 49.4 µM
- TGI (IGROV1 ovarian): 32.3 µM
- TGI (SN12C renal): > 59.2 µM
- TGI (HCC-2998 colon): 34.9 µM
- TGI (SK-MEL-5 melanoma): > 91.2 µM
- TGI (SW-620 colon): 98.7 µM
- TGI (SNB-19 CNS): > 100 µM
- TGI (HOP-92 NSCLC): 38.1 µM
- TGI (786-0 renal): > 47.9 µM
- TGI (UACC-62 melanoma): 27.8 µM
- TGI (HCT-116 colon): > 44.1 µM
- TGI (ACHN renal): 16.6 µM
- TGI (SK-OV-3 ovarian): > 100 µM
- TGI (HCT-15 colon): 19.8 µM
- TGI (NCI-H522 lung): 9.82 µM
- TGI (HL-60(TB) leukemia): > 23.4 µM
- TGI (MALME-3M melanoma): 28 µM
- TGI (MDA-MB-231 breast): 58 µM
- TGI (SF-268 CNS): > 61.3 µM
- TGI (CAKI-1 renal): 10.3 µM
- TGI (COLO 205 colon): > 59.7 µM
- TGI (MDA-MB-435): > 68.2 µM
- TGI (KM12 colon): 38 µM
- TGI (K-562 leukemia): > 60.9 µM
- TGI (MOLT-4 leukemia): 37.2 µM
- TGI (U251 CNS): > 75.2 µM
